Here are results for 65 compounds from a melting point compilation (Tetko et al.; mined from patent text by program, amines drawn as free bases though some values may be those of a salt).

A word on the melting point: it is the temperature of the solid-liquid transition. Turning to `CC(C)c1nc(-c2ccccc2)nc(-c2ccc(F)cc2)c1C=C(Br)Br`, the melting point lay in the range of 95 to 98 °C.
`Cc1nc2cc(NC(=O)Nc3cccc(C(F)(F)F)c3)ccc2o1` displayed a melting point of 184 to 186 °C.
The same measure for `CC12CCC(=O)NC1CCc1cc(-c3cccc([N+](=O)[O-])c3)ccc12` (single isomer, unassigned; (+)): 223 to 225 °C; for `CCCCC[C@H]1CC[C@H](CCc2ccc(-c3ccc(Br)cc3F)cc2)CC1`: 57.5 °C; for `CCOC(=O)c1cn(-c2ccc(F)cc2)c2cc(-c3ccncc3)ccc2c1=O`: 252 to 253 °C.
The figure for `COc1cc2c(cc1O)CCN(Cc1ccccc1)C2` is 134 to 135 °C; for `CCCCCCCCOc1ccc(-c2ccc(C(=O)O[C@@H](C)C(=O)OCCCC)cc2)cc1` it is 51 °C.
The figure for `COc1ccc(C(C)(O)c2cc(OCc3ccccc3)ccc2OC)cn1` (stereo not given) is 53 to 54 °C.
For `CCCCCCCCOc1ccc(CP(=O)(OC)OC)c2c(CP(=O)(OC)OC)cccc12`, the melting point is 51 to 52 °C.
Consider `CCCn1cnc2c1c(=O)n(CCCCCCOc1ccc(Cl)cc1)c(=O)n2C`, for which the melting point was in the range of 50 to 51 °C.
Turning to `O=C(Nc1ccc(OC(F)(F)F)cc1)NC1CCN(C(=O)c2ccc(Cl)nc2)CC1`, the melting point lay in the range of 208 to 209 °C.
Compound `CCCCc1nc(S(=O)CC)c(C(=O)O)n1Cc1ccc(-c2ccccc2C(=O)O)cc1` (stereo not given) displayed a melting point of 186 °C.
The figure for `COc1cc2c(cc1OC)CC(=S)N(CCCN(C)C1CCc3cc(OC)c(OC)cc3C1)CC2` (stereo not given) is 70 to 75 °C; for `O=C(N[C@@H](CNC(=O)c1ccc(C2CC2C(=O)NC2=NCCCN2)s1)C(=O)O)OCc1ccccc1` (stereo not given in full) it is 98 °C; for `COc1ccc(Cc2cnc(N[N+](=O)[O-])[nH]c2=O)cn1` it is 184 to 186 °C.
In the case of `CCCOc1cc(N(CC)CC)ccc1-c1nc2cc3c(cc2[nH]1)C(C)(C)CC(=O)N3`, the melting point is 147 to 148 °C.
The figure for `Cc1ncc([N+](=O)[O-])n1CCN=[N+]=[N-]` is 51 to 51.5 °C; for `CN1CCCC1=NC(=O)Nc1cccc(C#N)c1` it is 145 to 147 °C.
The figure for `CSCc1nnc2n1-c1sc(Cl)cc1C(c1ccccc1Cl)=NC2` is 200 to 202 °C; for `CCCc1c(O)ccc2c(=O)cc(CCC(=O)OCC)oc12` it is 127 to 128 °C.
The same measure for `CCn1cc(C(=O)O)c(=O)c2cc(F)c(N3CC4CCC3CN4)c(F)c21` (stereo not given): 255 to 257 °C; for `CCC(C1=C(C)C(=O)C(C)=C(C)C1=O)c1ccc(C(C)C)cc1` (stereo not given): 61 to 63 °C.
Take `CCOCc1nc2c(N)nc3ccccc3c2n1CCOCCNC(=O)Nc1ccccc1`: the melting point was in the range of 183 to 186 °C.
The figure for `Cc1ccc(N2CN(c3ccccc3)C3=NN=CC3=C2Cl)cc1` is 177 to 179 °C; for `CNc1scc(C)c1C(=O)c1ccccc1Cl` it is 132 to 134 °C; for `Cc1ccc(-c2nn(C(C)(C)C)c(N)c2C#N)cc1` it is 174 to 176 °C.
The figure for `C[C@@H]1OC(=O)C2=C[C@H]3CCCC[C@@H]3[C@@H](O)[C@H]21` is 191 to 193 °C; for `CCOc1nc(NCc2ccco2)nc(Nc2ccc3c(c2)ncn3C)n1` it is 105 to 107 °C.
Compound `O=C1c2ccccc2C(=O)N1Nc1ccccc1` had a melting point of 180 °C.
The compound `O=S(=O)(Nc1cccc2cc(C3=NCC(CCO)S3)[nH]c12)c1cccs1` (stereo not given) yielded a melting point of 156 to 158 °C.
The same measure for `COC(=O)c1cn2c(n1)COc1ccc(N)cc1-2`: 213 to 214 °C; for `O=S(=O)(Cl)c1ccc(Nc2nccc(-c3ccc(C(F)(F)F)cc3)n2)cc1`: 186 to 188 °C; for `C#CCNc1cccc2c1OC(F)(F)O2`: 66 to 68 °C.
`N#CCc1ccc2oc3ncccc3c(=O)c2c1` had a melting point of 198 to 201 °C.
The figure for `OCc1ncccc1Cl` is 42 to 44 °C.
The same measure for `COc1cc(Br)c(I)cc1OC`: 98 to 100 °C.
The same measure for `Cc1nc(O)c(C)c(NCCc2ccncc2)n1`: 250 to 252 °C; for `CCCCCCCCCCCCCCc1c[nH]c(C=O)c1`: 70 to 71 °C; for `CCCCC(Cc1ccc(OCCNC(=O)c2ccc(-c3ccc(C(=O)OC)cc3)cc2)cc1)C(=O)OCC` (stereo not given): 93 to 95 °C.
Compound `Nc1ncnc2c1ncn2CCO` returned a melting point of 236 °C.
The same measure for `COc1ccc(-c2ccncc2)c(C)n1`: 85 to 90 °C.
The figure for `COc1cccc(NC(=O)CC23CC4CC(CC(C4)C2)C3)c1C` is 173 to 175 °C; for `N#Cc1cccc2c1CCC2=NO` it is 200 to 202 °C.
The compound `OCc1cc(COc2ccc(Cl)cc2Cl)cc(OCc2ccccc2)c1` came in with a melting point of 85 to 88 °C.
The figure for `C=CC(=O)N[C@H](C)C(=O)OC1(C)CCC(C(C)C)CC1` (stereo not given in full) is 79 °C.
The figure for `CCC(C)(C)NC(Nc1ccc2ncsc2c1)=C(C#N)S(C)(=O)=O` is 112 to 114 °C; for `O=C(CBr)Cc1c(F)cccc1Cl` it is 47 °C.
The figure for `Cc1ccccc1C(=O)Nc1ccc(C(=O)N2CCCC(O)c3cc(Cl)ccc32)c(C)c1` (stereo not given) is 224 to 226 °C; for `CCCCCCN(CCCCCC)c1ccc(C2=C(C#N)C(=C(C#N)C#N)OC2(C)C)s1` it is 134 °C.
Take `CS(=O)(=O)CC(=O)NCCn1ccc2ncnc(Nc3ccc(Oc4cccc(OC(F)(F)F)c4)c(Cl)c3)c21`: the melting point lay within 133 to 135 °C.
The same measure for `CCOC1(C(N)=O)c2ccccc2S(=O)(=O)N1Cc1ccc(Br)cc1F` (stereo not given): 175 to 177 °C; for `O=C(Nc1ccccc1)Nc1nc(C=C2SC(=O)NC2=O)cs1`: greater than 300 °C; for `CCO/C(=N/OC(C)=O)C1Cc2cc(C(=O)c3ccccc3F)c(O)c(Cl)c2O1` (stereo not given): 111 to 112 °C.
The same measure for `CCCCOc1cc(C(=O)O)cc(S(N)(=O)=O)c1Cc1ccccc1`: 228 to 229 °C; for `Cc1cc(-c2cc(C(F)(F)F)n3cnc(-c4cccnc4)c3n2)ccc1C(F)(F)F`: 173 °C; for `BrCCC=C1c2ccccc2C=Cc2ccccc21`: 88 to 89 °C.
The same measure for `FC(F)(F)c1cccc(-c2cc(C(F)(F)F)n3ncc(-c4cccnc4)c3n2)c1`: 171 °C; for `O=C(O)Cc1cccc(OCc2cn(-c3ccc(C(F)(F)F)cn3)nc2C2CCCCC2)c1`: 129 to 130 °C; for `O=C1NCCc2c(Cl)cccc21`: 143 to 148 °C.
In turn, `N#CSc1nc(I)ncc1Cl` gave a melting point of 183 to 186 °C.
The same measure for `Cc1cn(C(C)C(=O)c2ccc(Cl)cc2)c(=O)n1-c1ccc(N2CCN(c3ccc(O)cc3)CC2)cc1` (stereo not given): 230 °C; for `CCS(=O)(=O)c1ccc(COc2cccc3c2CN(C2CCC(=O)NC2=O)C3=O)cc1` (stereo not given): 248 to 250 °C; for `CC(C)Sc1ccc(N)c(C#N)c1`: 67 to 68 °C.
The figure for `O=C(c1ccc(Cl)cc1)c1cccc2c1CCC2C(=O)O` (stereo not given) is 137 to 139 °C; for `CCCCC(O)c1cccc(O)c1` (stereo not given) it is 120 to 122 °C.
